# Source: patent publication EP0623339B1, “Use of 4-,4- and 5-, or 4- and 6-substituted derivatives of resorcin in cosmetic or dermopharmaceutical compositions for depigmentation” (L'OREAL, priority 1993, dated 1994)
# Tested on: tyrosinase de champignons
# Test: in vitro inhibition test of tyrosinase activity (dopachrome formation followed at 475 nm)
# Assay type: biochemical
# Details: lowering of maximal dopachrome formed (OD 475 nm at plateau) vs. no inhibitor; inhibitor at 50 % molaire relative to tyrosine; pH = 6,5; 25°C
# From the text: Certains des composés de formule générale (I) ont été étudiés comparativement à l'hydroquinone à quantité molaire équivalente dans le test d'inhibition in vitro de l'activité de la tyrosinase.
# Selon ce test on suit par spectrométrie visible à 475 nm la quantité de dopachrome formée au cours de la chaîne de réactions de transformation de la tyrosine en mélanines. Ces réactions sont catalysées in vitro par la tyrosinase de champignons, en présence d'un co-substrat réducteur (par exemple la L-dopa en petite quantité) pour initier la réaction d'hydroxylation de la L-tyrosine en L-dopa, laquelle est ensuite oxydée catalytiquement en dopaquinone puis en dopachrome, produit intermédiaire avant les réactions d'oxydation non enzymatiques aboutissant à la formation des mélanines.
# On mesure donc la concentration en dopachrome formé au cours du temps en présence et en absence de l'inhibiteur. […]
# On exprime l'effet d'inhibition par l'abaissement de la quantité maximale de dopachrome formée (valeur de densité optique à 475 nm lue au plateau de la courbe) par rapport à la quantité obtenue en l'absence d'inhibiteur. […]
# • cuve de référence : 3 ml de A • cuve d'essai : 1 ml de B 0,1 ml de C 1,85ml de A + E • homogénéiser et équilibrer à 25°C • ajouter 0,05 ml de D • mélanger rapidement et observer la cinétique par la mesure de l'absorbance à 475 nm en fonction du temps.
structure (smiles),measurement,value
Oc1ccc(O)cc1 [hydroquinone],% d'inhibition,-33%
